From ChEMBL document CHEMBL4422615, “Novel non-xanthine antagonist of the A2B adenosine receptor: From HTS hit to lead structure” (Eur J Med Chem, 2019)

Experiments:
Homo sapiens [1] = species on record: Homo sapiens; assay: Selectivity index, ratio of IC50 for human A3 adenosine receptor expressed in HEK293 cell membranes to IC50 for human A2B adenosine receptor expressed in HEK293 cell membranes; type: cell-based
Homo sapiens [2] = species on record: Homo sapiens; assay: Selectivity index, ratio of IC50 for human A1 adenosine receptor expressed in CHO cell membranes to IC50 for human A2B adenosine receptor expressed in HEK293 cell membranes; type: cell-based
Adenosine receptor A2b = target: T1, Adenosine receptor A2b (Homo sapiens, UniProt P29275); assay: Displacement of [3H]DPCPX from human A2B adenosine receptor expressed in HEK293 cell membranes after 60 mins by radioligand displacement assay
T1 sequence (P29275 whole entry): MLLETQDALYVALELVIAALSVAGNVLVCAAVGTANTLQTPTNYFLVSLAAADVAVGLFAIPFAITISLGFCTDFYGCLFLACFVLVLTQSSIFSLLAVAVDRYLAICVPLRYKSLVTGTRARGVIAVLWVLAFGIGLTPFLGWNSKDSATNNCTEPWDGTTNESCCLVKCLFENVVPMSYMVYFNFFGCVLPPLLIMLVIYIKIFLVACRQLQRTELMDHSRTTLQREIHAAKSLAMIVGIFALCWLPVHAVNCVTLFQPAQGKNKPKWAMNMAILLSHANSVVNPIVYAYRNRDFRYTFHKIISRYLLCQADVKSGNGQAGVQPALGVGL

Homo sapiens [3] = species on record: Homo sapiens; assay: Selectivity index, ratio of IC50 for human A2A adenosine receptor expressed in HEK293 cell membranes to IC50 for human A2B adenosine receptor expressed in HEK293 cell membranes; type: cell-based
[4] = Intrinsic clearance in rat hepatocytes by MS/MS analysis; type: ADME, cell-based, Hepatocyte; conditions: read-out: CLH (converted)

COCCn1c(=O)n(CCc2ccccc2)c(=O)c2c(C)c(C)sc21
Ratio IC50 (Homo sapiens [1]): 33
Ratio IC50 (Homo sapiens [2]): 12
IC50 (Adenosine receptor A2b): 200 nM

COCCn1c(=O)n(CCc2ccccc2)c(=O)c2c(C)c(CN3CCOCC3)sc21
Ratio IC50 (Homo sapiens [1]): 9
Ratio IC50 (Homo sapiens [2]): 1
Ratio IC50 (Homo sapiens [3]): 7
IC50 (Adenosine receptor A2b): 760 nM

Cc1csc2c1c(=O)n(CCc1ccccc1)c(=O)n2CC1CCCO1 (stereo in doubt; 7)
Ratio IC50 (Homo sapiens [1]): 37
Ratio IC50 (Homo sapiens [2]): 46
Ratio IC50 (Homo sapiens [3]): 62

COCCn1c(=O)n(CCc2ccccc2)c(=O)c2c(C)c(Cl)sc21
Ratio IC50 (Homo sapiens [2]): 3
Ratio IC50 (Homo sapiens [3]): 3
IC50 (Adenosine receptor A2b): 3300 nM

COCCn1c(=O)n(CCc2ccccc2)c(=O)c2c3c(sc21)CCC3
Ratio IC50 (Homo sapiens [1]): 69
Ratio IC50 (Homo sapiens [2]): 16
IC50 (Adenosine receptor A2b): 97 nM

Cc1csc2c1c(=O)n(CCc1ccccc1)c(=O)n2CCc1ccc(S(N)(=O)=O)cc1
Ratio IC50 (Homo sapiens [1]): 4
Ratio IC50 (Homo sapiens [2]): 2
Ratio IC50 (Homo sapiens [3]): 6
IC50 (Adenosine receptor A2b): 1700 nM

COCCn1c(=O)n(CCc2ccccc2F)c(=O)c2c(C)csc21
IC50 (Adenosine receptor A2b): 210 nM

Cc1[nH]cnc1Cn1c(=O)n(CCc2ccccc2)c(=O)c2c(C)csc21
predicted hepatic clearance [4]: 56.7 mL/min/kg
Ratio IC50 (Homo sapiens [1]): 2
Ratio IC50 (Homo sapiens [2]): 3
Ratio IC50 (Homo sapiens [3]): 3
IC50 (Adenosine receptor A2b): 3400 nM

Cc1csc2c1c(=O)n(CCc1ccccc1)c(=O)n2CC#N
IC50 (Adenosine receptor A2b): 130 nM

COCCn1c(=O)n(CCc2ccccc2)c(=O)c2c(C)c(C(C)(O)c3cncn3C)sc21 (stereo not drawn)
Ratio IC50 (Homo sapiens [1]): 6
Ratio IC50 (Homo sapiens [2]): 2
Ratio IC50 (Homo sapiens [3]): 3
IC50 (Adenosine receptor A2b): 1200 nM

CCn1c(=O)c2c3c(sc2n(CCOC)c1=O)CCC3
Ratio IC50 (Homo sapiens [1]): 30
Ratio IC50 (Homo sapiens [2]): 18
Ratio IC50 (Homo sapiens [3]): 11
IC50 (Adenosine receptor A2b): 220 nM

COCCn1c(=O)n(CCc2ccccc2)c(=O)c2c3c(sc21)CCCC3
Ratio IC50 (Homo sapiens [1]): 13
Ratio IC50 (Homo sapiens [2]): 3
IC50 (Adenosine receptor A2b): 490 nM

COCCn1c(=O)n(CCc2ccccc2)c(=O)c2c(C)c(C(N)=O)sc21
predicted hepatic clearance [4]: 65 mL/min/kg
Ratio IC50 (Homo sapiens [1]): 16
Ratio IC50 (Homo sapiens [2]): 8
Ratio IC50 (Homo sapiens [3]): 18
IC50 (Adenosine receptor A2b): 430 nM

Cc1csc2c1c(=O)n(CCc1ccccc1)c(=O)n2Cc1ncc[nH]1
Ratio IC50 (Homo sapiens [1]): 51
Ratio IC50 (Homo sapiens [2]): 11
Ratio IC50 (Homo sapiens [3]): 35
IC50 (Adenosine receptor A2b): 130 nM

COCCn1c(=O)n(CCc2ccccc2)c(=O)c2c(C)c(C(=O)c3cn(C)cn3)sc21
Ratio IC50 (Homo sapiens [1]): 35
Ratio IC50 (Homo sapiens [2]): 4
Ratio IC50 (Homo sapiens [3]): 9
IC50 (Adenosine receptor A2b): 190 nM

COCCn1c(=O)n(CCc2ccccc2)c(=O)c2ccsc21
Ratio IC50 (Homo sapiens [1]): 1
Ratio IC50 (Homo sapiens [2]): 2
Ratio IC50 (Homo sapiens [3]): 2
IC50 (Adenosine receptor A2b): 4700 nM

COCCn1c(=O)n(CCc2ccccc2)c(=O)c2c(C)c(C(=O)c3ccccc3)sc21
Ratio IC50 (Homo sapiens [2]): 0.6
Ratio IC50 (Homo sapiens [3]): 3
IC50 (Adenosine receptor A2b): 2300 nM

CCn1c(=O)c2c(C)c(C)sc2n(CCOC)c1=O
Ratio IC50 (Homo sapiens [1]): 15
Ratio IC50 (Homo sapiens [2]): 9
Ratio IC50 (Homo sapiens [3]): 8
IC50 (Adenosine receptor A2b): 440 nM

COCCn1c(=O)n(CCc2ccccc2)c(=O)c2c(C)c(C(=O)N3CC(O)C3)sc21
predicted hepatic clearance [4]: 61.7 mL/min/kg
IC50 (Adenosine receptor A2b): 200 nM

COCCn1c(=O)n(CC(F)(F)c2ccccc2)c(=O)c2c(C)csc21
predicted hepatic clearance [4]: 66.7 mL/min/kg
Ratio IC50 (Homo sapiens [2]): 9
Ratio IC50 (Homo sapiens [3]): 25
IC50 (Adenosine receptor A2b): 440 nM

COCCn1c(=O)n(CCc2ccccc2)c(=O)c2c(C)c(CO)sc21
Ratio IC50 (Homo sapiens [1]): 43
Ratio IC50 (Homo sapiens [2]): 11
Ratio IC50 (Homo sapiens [3]): 40
IC50 (Adenosine receptor A2b): 150 nM

CCn1c(=O)c2c3c(sc2n(CCOC)c1=O)CCCC3
Ratio IC50 (Homo sapiens [1]): 17
Ratio IC50 (Homo sapiens [2]): 5
Ratio IC50 (Homo sapiens [3]): 3
IC50 (Adenosine receptor A2b): 390 nM

COCCn1c(=O)n(CCc2ccccc2)c(=O)c2c(C)c(C(=O)N3CCCC3)sc21
IC50 (Adenosine receptor A2b): 260 nM

Cc1csc2c1c(=O)n(CCc1ccccc1)c(=O)n2CC(=O)Nc1cc(Cl)ccc1C(=O)O
IC50 (Adenosine receptor A2b): > 10000 nM

CCOC(=O)c1sc2c(c1C)c(=O)n(CCc1ccccc1)c(=O)n2CCOC
Ratio IC50 (Homo sapiens [1]): 4
Ratio IC50 (Homo sapiens [2]): 2
Ratio IC50 (Homo sapiens [3]): 6
IC50 (Adenosine receptor A2b): 1700 nM

COCCn1c(=O)n(CCc2ccccc2)c(=O)c2c(C)c(C(=O)C3CC3)sc21
Ratio IC50 (Homo sapiens [1]): 8
Ratio IC50 (Homo sapiens [2]): 0.57
Ratio IC50 (Homo sapiens [3]): 1
IC50 (Adenosine receptor A2b): 790 nM

COCCn1c(=O)n(CC=C(F)F)c(=O)c2c(C)csc21
Ratio IC50 (Homo sapiens [2]): 2
Ratio IC50 (Homo sapiens [3]): 2
IC50 (Adenosine receptor A2b): 4900 nM

CCn1c(=O)c2c(C)csc2n(CCOC)c1=O
Ratio IC50 (Homo sapiens [1]): 10
Ratio IC50 (Homo sapiens [2]): 6
Ratio IC50 (Homo sapiens [3]): 11
IC50 (Adenosine receptor A2b): 640 nM

COCCn1c(=O)n(CCc2ccccc2)c(=O)c2c(C)c(C(=O)N(C)OC)sc21
Ratio IC50 (Homo sapiens [1]): 17
Ratio IC50 (Homo sapiens [2]): 9
Ratio IC50 (Homo sapiens [3]): 4
IC50 (Adenosine receptor A2b): 390 nM

COCCn1c(=O)n(CC(C)(C)C)c(=O)c2c(C)csc21
Ratio IC50 (Homo sapiens [1]): 4
Ratio IC50 (Homo sapiens [2]): 7
Ratio IC50 (Homo sapiens [3]): 7
IC50 (Adenosine receptor A2b): 1600 nM

COCCn1c(=O)n(CCC2CCOCC2)c(=O)c2c(C)csc21
Ratio IC50 (Homo sapiens [1]): 1
Ratio IC50 (Homo sapiens [2]): 1
Ratio IC50 (Homo sapiens [3]): 1
IC50 (Adenosine receptor A2b): > 10000 nM

COCCn1c(=O)n(CCN2CCS(=O)(=O)CC2)c(=O)c2c(C)csc21
Ratio IC50 (Homo sapiens [1]): 1
Ratio IC50 (Homo sapiens [2]): 1
Ratio IC50 (Homo sapiens [3]): 1
IC50 (Adenosine receptor A2b): > 10000 nM

Cc1csc2c1c(=O)n(CCc1ccccc1)c(=O)n2CC1CCCO1 (racemic)
Ratio IC50 (Homo sapiens [1]): 13
Ratio IC50 (Homo sapiens [2]): 13
Ratio IC50 (Homo sapiens [3]): 21

COCCn1c(=O)n(CC2(c3ccccc3)CC2)c(=O)c2c(C)csc21
Ratio IC50 (Homo sapiens [2]): 1
Ratio IC50 (Homo sapiens [3]): 7
IC50 (Adenosine receptor A2b): 1500 nM

Cc1csc2c1c(=O)n(CCc1ccccc1)c(=O)n2Cc1nc2cc(S(N)(=O)=O)ccc2o1
Ratio IC50 (Homo sapiens [1]): 6
Ratio IC50 (Homo sapiens [2]): 0.83
Ratio IC50 (Homo sapiens [3]): 2
IC50 (Adenosine receptor A2b): 1100 nM

COCCn1c(=O)n(Cc2ccccc2)c(=O)c2c(C)csc21
Ratio IC50 (Homo sapiens [1]): 1
Ratio IC50 (Homo sapiens [2]): 1
Ratio IC50 (Homo sapiens [3]): 1
IC50 (Adenosine receptor A2b): > 10000 nM

COCCn1c(=O)n(CCc2ccccc2)c(=O)c2c(C)c(C(=O)O)sc21
predicted hepatic clearance [4]: 55 mL/min/kg
Ratio IC50 (Homo sapiens [2]): 5
Ratio IC50 (Homo sapiens [3]): 5
IC50 (Adenosine receptor A2b): 2100 nM

COCCn1c(=O)n(CCc2ccccc2)c(=O)c2c(C)c(COC3CCCC3)sc21
Ratio IC50 (Homo sapiens [1]): 27
Ratio IC50 (Homo sapiens [2]): 4
Ratio IC50 (Homo sapiens [3]): 7
IC50 (Adenosine receptor A2b): 250 nM

COCCn1c(=O)n(CCc2ccccc2)c(=O)c2c(C)c(Cc3ccccc3)sc21
Ratio IC50 (Homo sapiens [2]): 0.19
Ratio IC50 (Homo sapiens [3]): 4
IC50 (Adenosine receptor A2b): 540 nM

COCCn1c(=O)n(CCc2ccccc2)c(=O)c2c(C)c(C(F)(F)c3ccccc3)sc21
Ratio IC50 (Homo sapiens [1]): 2
Ratio IC50 (Homo sapiens [2]): 0.36
Ratio IC50 (Homo sapiens [3]): 3
IC50 (Adenosine receptor A2b): 2800 nM

Cc1csc2c1c(=O)n(CCc1ccccc1)c(=O)n2Cc1nccn1C
Ratio IC50 (Homo sapiens [1]): 46
Ratio IC50 (Homo sapiens [2]): 4
Ratio IC50 (Homo sapiens [3]): 21
IC50 (Adenosine receptor A2b): 145 nM

COCCn1c(=O)n(CCc2ccccc2)c(=O)c2c(C)c(CN3CCCC3)sc21
predicted hepatic clearance [4]: 61.7 mL/min/kg
IC50 (Adenosine receptor A2b): 200 nM

COCCn1c(=O)n(CCc2ccccc2)c(=O)c2c(C)c(-c3ccccc3)sc21
Ratio IC50 (Homo sapiens [1]): 1
Ratio IC50 (Homo sapiens [2]): 0.65
Ratio IC50 (Homo sapiens [3]): 2
IC50 (Adenosine receptor A2b): 4900 nM

Cc1csc2c1c(=O)n(CCc1ccccc1)c(=O)n2CCF
IC50 (Adenosine receptor A2b): 135 nM

Cc1csc2[nH]c(=O)n(CCc3ccccc3)c(=O)c12
predicted hepatic clearance [4]: 58.3 mL/min/kg
Ratio IC50 (Homo sapiens [1]): 14
Ratio IC50 (Homo sapiens [2]): 6
IC50 (Adenosine receptor A2b): 480 nM
